# Read-outs that look alike come from different tables or passages of the source.
# Experiments:
# canines = conditions: grape ingestion, tartaric acid equivalent; cited from earlier work
# HK-2 cells = experiment: LDH release cytotoxicity of tartaric acid in HK-2 cells; format: cell-based, human
# Text: (§1) Absorbance was read at 450 nm.
# MDCK cells [1] = experiment: Probenecid prevention of tartaric acid induced LDH release in MDCK cells
# Experimental: When conducting experiments with probenecid (Sigma Aldrich, St. Louis, MO), a stock solution of 2 mmol/L in complete media was made at pH 7.4, then mixed with either complete media or 100 mmol/L tartaric acid to yield both solutions of 1 mmol/L and 500 μmol/L and solutions of 1 mmol/L probenecid+50 mmol/L potassium bitartrate, as well as 500 μmol/L+50 mmol/L potassium bitartrate. MDCK cells were treated and allowed to incubate for 72 hours.
# as §1
# As TTA is a common, dietary dicarboxylic acid, it is believed to be renally excreted via organic anion-handling transporters. Therefore, to assess the role of OAT-mediated TTA transport, MDCK cells were exposed to 50 mM tartaric acid alone or in combination with 1 mM or 0.5 mM probenecid; a known OAT-1 inhibitor.
# MDCK cells [2] = experiment: ATP depletion in MDCK cells (CellTiter Glo assay); format: cell-based, canine
# Experimental: TTA concentration groups were compared to media alone (Neg.) using one-way ANOVA followed by a Dunnett's post-hoc test. (n=3/group). * p<0.05; ** p<0.005; *** p<0.001; **** p<0.0001.
# 500 μM probenecid (PBD) protected MDCK cells from 25 mM and 50 mM TTA-induced ATP depletion at 12 & 72 h, assessed using a CellTiter Glo® assay. Groups were compared using one-way ANOVA followed by a Tukey's post-hoc test. (n=3); ***p<0.001, **** p<0.0001 compared to media; $p<0.05 compared to 25 or 50 mM TTA alone.
# ATP depletion was determined in MDCK cells as another measure of cytotoxicity of TTA. The results shown in FIG. 3 indicate that ATP depletion was both time-and dose-dependent. In FIG. 4, it can be observed that dose-response curves were obtained for TTA-induced ATP depletion, and the cells became more sensitive at each increasing dose, and with increasing time of exposure to TTA. This established the MDCK cell culture model as a valid predictor of TTA-induced renal pathology in canine kidney in vitro.
# [3] = tested on: MDCK cells transfected with human OAT-4; experiment: LDH release in hOAT-4 transfected MDCK cells; format: cell-based, canine; conditions: 50 mM TTA, 72 h
# Experimental: In order to assess the role that OAT transporters may play in tartaric acid induced nephrotoxicity, MDCK cells were transfected with human OAT-4 and treated with 50 mmol/L of potassium bitartrate. Human (h)OAT-4 cDNA (GenScript, Piscataway, NJ) was purchased and transformed using E. coli (New England Biolabs, Ipswich, MA) to produce higher amounts of cDNA to be used in transfection. E. coli was transformed per New England Biolab's protocol. Briefly, E. coli was thawed, plasmid cDNA was added, and then mixed with manufacturer's SOC solution. The mixture was allowed to incubate at 37° C. for 60 minutes, and was then spread on LB agar ampicillin-100 plates (Sigma Aldrich, St. Louis, MO) and allowed to incubate for 24 hours at 37° C. Colonies were then collected, placed into a solution of LB […] ampicillin-100 broth, and incubated overnight.
# Human OAT-4 plasmid preparation with the amplified E. coli was completed using the PureYield Plasmid Miniprep System (Promega, Madison, WI) following manufacturers protocol. Briefly, 4 mL of culture was collected and centrifuged. The supernatant was removed, and the cell pellet was resuspended in 600 μL 1xPBS. […] The concentration of the elucidated cDNA was then measured using a NanoDrop spectrophotometer (yielding cDNA ranging from 264.8 to 762.8 ng/uL). […]
# as §1
# MDCK cells [4] = tested on: MDCK cells
# Experimental: MDCK cells were maintained in EMEM media supplemented with 10% Fetal Bovine Serum and 1% streptomycin. […] Both cell lines were incubated at 37° C. and 5% CO2 until confluency.
# For experiments, both cell lines were incubated in triplicate with an endpoint of 72 hours. Treatment concentrations were made using a stock solution of 100 mmol/L potassium bitartrate in complete media. Final treatment concentrations of 5, 10, 25, 50, 75, and 100 mmol/L were reached via serial dilution. To mimic physiological pH of 7.4, 10N NaOH and 10M HCl were used. A positive control of 0.005% hydrogen peroxide was also used.
# Release of lactate dehydrogenase (LDH) from the cytosol in response to plasma membrane damage is a common measure of necrotic cell death and was measured utilizing the LDH-Cytotoxicity assay kit according to the manufacturer's protocol (BioVision, Milpitas, CA). Briefly, media from treated MDCK or HK-2 cells was removed and samples placed into a 96 well plate in duplicate. A mixture of WST kit reagent and buffer in a 25:1 ratio was then added to each well. The plate was covered and allowed to incubate at room temperature for 30 minutes. Absorbance was read at 450 nm. To normalize for potential cell confluency differences, cells were solubilized with 0.05% Triton-X, and cellular protein was analyzed using the bicinchoninic acid (BCA) method.
# renal tubular excretion = conditions: canines, effect plateaus at this dose; cited from earlier work
# dogs = conditions: cited from earlier work
compound,measurement,setting,value
"O=C(O)C(O)C(O)C(=O)O (stereo not drawn) [TTA, tartaric acid]",ingested dose (as tartaric acid) resulting in significant nephrotoxicity,canines,196 to 1484 mg/kg
same,LDH release,"HK-2 cells; HK-2 cells, 72 h, pH 7.4, 5-100 mmol/L, vs negative control",no statistically significant increase in LDH release
same,"TTA-induced LDH release, HK-2 vs. MDCK cells","HK-2 cells; same exposure concentrations across species, two-way ANOVA",no significant difference
same,LDH release,"MDCK cells [1]; 50 mM TTA alone, 72 h (probenecid experiment)",4.302
same,ATP depletion,MDCK cells [2]; function of time and dose of TTA exposure,induced significant ATP depletion
same,LDH release,[3],1.213
same,LDH release,"MDCK cells [4]; MDCK cells, 10 mM, 72 h, pH 7.4",1.769
same,LDH release,"MDCK cells [4]; MDCK cells, 25 mM, 72 h, pH 7.4",1.472
same,LDH release,"MDCK cells [4]; MDCK cells, 50 mM, 72 h, pH 7.4",1.646
same,LDH release,"MDCK cells [4]; MDCK cells, 75 mM, 72 h, pH 7.4",2.540
same,LDH release,"MDCK cells [4]; MDCK cells, 100 mM, 72 h, pH 7.4",1.778
same,lowest concentration with significant increase in TTA-induced cytotoxicity,"MDCK cells [4]; MDCK cells, 72 h of exposure, vs controls",10 mmol/L
same,LDH release,"MDCK cells [4]; non-transfected MDCK cells, 50 mM TTA, 72 h (transfection experiment)",2.807
"CCCN(CCC)S(=O)(=O)c1ccc(C(=O)O)cc1 [probenecid, 4-(dipropylsulfamoyl)benzoic acid]",prevention of TTA-induced cytotoxicity,MDCK cells [1]; 500 μM and 1 mM probenecid,completely prevented
same,LDH release,"MDCK cells [1]; 0.5 mM probenecid + 50 mM TTA, 72 h",1.658
same,LDH release,"MDCK cells [1]; 1 mM probenecid + 50 mM TTA, 72 h",1.518
same,cell death by probenecid alone,"MDCK cells [1]; probenecid alone at 0.5 mM or 1 mM, 72 h",did not induce significant cell death
same,oral dose enough to completely suppress renal tubular excretion,renal tubular excretion,6 mg/kg
same,protection from TTA-induced ATP depletion,"MDCK cells [2]; 500 μM probenecid, 25 mM and 50 mM TTA, 12 & 72 h",protected
same,LD50,dogs; IV,270 mg/kg
same,therapeutic index,dogs,high

# From patent publication US20260165990A1, “Treatment of Tartaric Acid Toxicity in Dogs with Probenecid” (priority 2022, published 2026)
